Source: patent US11739098B2 (BRISTOL-MYERS SQUIBB COMPANY, priority 2017, dated 2023)

Key:
Format in all cases: cell-based
[1] = molecular target: T1, human TLR7 (Homo sapiens, UniProt Q9NYK1); experiment: TLR7 inhibition reporter assay (HEK-Blue cells, SEAP reporter, gardiquimod stimulation); details: HEK-Blue cells overexpressing human TLR7, SEAP reporter, gardiquimod 7.5 μM
T1 construct: host or cells: HEK-Blue cells (HEK293-derived reporter line)
T1 sequence (Q9NYK1 27-1049): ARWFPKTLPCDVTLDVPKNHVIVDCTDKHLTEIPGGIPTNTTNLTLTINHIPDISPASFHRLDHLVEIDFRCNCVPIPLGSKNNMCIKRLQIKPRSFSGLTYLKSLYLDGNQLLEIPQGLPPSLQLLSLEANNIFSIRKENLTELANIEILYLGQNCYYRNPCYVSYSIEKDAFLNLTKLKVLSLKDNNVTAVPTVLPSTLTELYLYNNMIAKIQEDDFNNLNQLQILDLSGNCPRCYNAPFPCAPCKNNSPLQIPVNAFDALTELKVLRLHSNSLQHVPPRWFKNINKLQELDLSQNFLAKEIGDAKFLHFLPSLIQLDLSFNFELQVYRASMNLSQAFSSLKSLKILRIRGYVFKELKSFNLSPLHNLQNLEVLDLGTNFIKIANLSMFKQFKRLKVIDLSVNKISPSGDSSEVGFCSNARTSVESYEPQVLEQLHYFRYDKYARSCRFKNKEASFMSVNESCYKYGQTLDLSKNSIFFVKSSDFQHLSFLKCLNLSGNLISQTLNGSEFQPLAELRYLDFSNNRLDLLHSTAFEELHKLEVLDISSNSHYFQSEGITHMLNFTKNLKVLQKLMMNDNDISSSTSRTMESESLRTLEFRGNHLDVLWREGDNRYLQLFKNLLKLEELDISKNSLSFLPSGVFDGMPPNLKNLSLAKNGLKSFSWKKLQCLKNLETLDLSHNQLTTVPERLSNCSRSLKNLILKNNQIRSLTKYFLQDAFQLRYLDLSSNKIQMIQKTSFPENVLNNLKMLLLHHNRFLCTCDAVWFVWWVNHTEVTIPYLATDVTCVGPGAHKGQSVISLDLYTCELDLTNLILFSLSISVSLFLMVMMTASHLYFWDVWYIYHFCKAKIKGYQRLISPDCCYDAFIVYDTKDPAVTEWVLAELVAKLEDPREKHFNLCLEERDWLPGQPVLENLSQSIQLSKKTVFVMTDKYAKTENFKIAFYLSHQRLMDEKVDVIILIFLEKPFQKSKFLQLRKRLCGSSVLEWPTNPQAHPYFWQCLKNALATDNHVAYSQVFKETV
Procedure, shortened: (§1)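 HEK-Blue cells overexpressing the receptor, with NF-κB/AP-1-driven SEAP, were pre-treated 30 min at room temperature with compound (0.05 nM–50 μM), then stimulated with gardiquimod 7.5 μM (TLR7), R848 15.9 μM (TLR8) or ODN2006 5 nM (TLR9). SEAP was read after 22 h at 37 °C as percent inhibition.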

[2] = molecular target: T2, human TLR8 (Homo sapiens, UniProt Q9NR97); experiment: TLR8 inhibition reporter assay (HEK-Blue cells, SEAP reporter, R848 stimulation); details: HEK-Blue cells overexpressing human TLR8, SEAP reporter, R848 15.9 μM
T2 construct: host or cells: HEK-Blue cells (HEK293-derived reporter line)
T2 sequence (Q9NR97 27-1041): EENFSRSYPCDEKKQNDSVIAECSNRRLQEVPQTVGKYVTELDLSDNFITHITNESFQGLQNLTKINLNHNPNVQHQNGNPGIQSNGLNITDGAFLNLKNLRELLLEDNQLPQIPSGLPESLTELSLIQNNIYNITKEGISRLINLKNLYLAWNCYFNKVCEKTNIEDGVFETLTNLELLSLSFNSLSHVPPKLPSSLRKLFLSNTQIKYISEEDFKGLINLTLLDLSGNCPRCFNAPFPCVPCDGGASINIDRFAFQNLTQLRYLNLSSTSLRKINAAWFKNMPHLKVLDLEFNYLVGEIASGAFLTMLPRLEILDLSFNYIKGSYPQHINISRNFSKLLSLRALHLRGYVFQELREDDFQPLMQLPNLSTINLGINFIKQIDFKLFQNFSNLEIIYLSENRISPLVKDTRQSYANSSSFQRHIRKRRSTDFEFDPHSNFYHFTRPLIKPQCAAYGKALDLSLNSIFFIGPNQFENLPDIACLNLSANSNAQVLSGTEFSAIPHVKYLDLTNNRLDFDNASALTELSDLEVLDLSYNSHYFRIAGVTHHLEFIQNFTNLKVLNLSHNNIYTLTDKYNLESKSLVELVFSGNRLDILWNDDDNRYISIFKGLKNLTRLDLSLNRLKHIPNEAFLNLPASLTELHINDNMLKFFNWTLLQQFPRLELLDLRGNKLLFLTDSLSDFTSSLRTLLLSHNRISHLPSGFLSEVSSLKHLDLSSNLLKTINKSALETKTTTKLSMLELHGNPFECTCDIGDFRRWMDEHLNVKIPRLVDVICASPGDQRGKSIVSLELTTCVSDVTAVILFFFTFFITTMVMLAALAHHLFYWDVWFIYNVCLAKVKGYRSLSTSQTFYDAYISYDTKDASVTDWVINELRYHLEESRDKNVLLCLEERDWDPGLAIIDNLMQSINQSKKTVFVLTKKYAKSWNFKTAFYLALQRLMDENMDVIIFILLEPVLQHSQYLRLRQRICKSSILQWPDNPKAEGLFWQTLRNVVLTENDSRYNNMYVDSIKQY
Procedure, shortened: as §1

[3] = molecular target: T3, human TLR9 (Homo sapiens, UniProt Q9NR96); experiment: TLR9 inhibition reporter assay (HEK-Blue cells, SEAP reporter, ODN2006 stimulation); details: HEK-Blue cells overexpressing human TLR9, SEAP reporter, ODN2006 5 nM
T3 construct: host or cells: HEK-Blue cells (HEK293-derived reporter line)
T3 sequence (Q9NR96 26-1032): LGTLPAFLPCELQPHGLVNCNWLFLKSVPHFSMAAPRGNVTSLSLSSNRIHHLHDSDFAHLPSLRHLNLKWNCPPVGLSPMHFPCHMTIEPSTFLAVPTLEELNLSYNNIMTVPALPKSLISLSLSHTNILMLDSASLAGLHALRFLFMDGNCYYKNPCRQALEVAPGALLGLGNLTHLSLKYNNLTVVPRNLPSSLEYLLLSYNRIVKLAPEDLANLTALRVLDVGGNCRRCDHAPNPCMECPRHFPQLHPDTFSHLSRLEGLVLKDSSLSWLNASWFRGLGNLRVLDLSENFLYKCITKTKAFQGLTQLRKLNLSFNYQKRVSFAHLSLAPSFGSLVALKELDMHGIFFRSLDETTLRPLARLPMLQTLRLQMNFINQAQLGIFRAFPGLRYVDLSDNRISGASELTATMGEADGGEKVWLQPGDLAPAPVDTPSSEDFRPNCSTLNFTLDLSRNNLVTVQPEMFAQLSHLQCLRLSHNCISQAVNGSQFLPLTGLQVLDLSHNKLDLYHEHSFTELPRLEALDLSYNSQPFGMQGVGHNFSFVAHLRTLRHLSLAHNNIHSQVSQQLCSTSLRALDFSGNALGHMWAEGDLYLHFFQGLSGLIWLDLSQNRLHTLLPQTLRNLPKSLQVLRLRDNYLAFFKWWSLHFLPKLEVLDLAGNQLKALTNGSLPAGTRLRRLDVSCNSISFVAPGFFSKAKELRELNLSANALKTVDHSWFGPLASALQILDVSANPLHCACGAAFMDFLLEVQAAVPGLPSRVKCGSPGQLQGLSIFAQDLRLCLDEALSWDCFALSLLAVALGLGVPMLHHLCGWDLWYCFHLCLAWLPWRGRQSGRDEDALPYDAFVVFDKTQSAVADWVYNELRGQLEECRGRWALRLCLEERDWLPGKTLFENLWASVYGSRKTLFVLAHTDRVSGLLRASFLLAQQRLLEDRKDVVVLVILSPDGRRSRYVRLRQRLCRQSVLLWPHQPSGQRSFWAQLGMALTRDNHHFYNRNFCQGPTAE
Procedure, shortened: as §1

SMILES	IC50 [1] [nM]	IC50 [2] [nM]	IC50 [3] [nM]
CC(C)c1c(-c2ccnc3[nH]ncc23)[nH]c2ccc(C3CCN(Cc4cn5ccccc5n4)CC3)cc12 [Example 862, 4-(5-(1-(imidazo[1,2-a]pyridin-2-ylmethyl)piperidin-4-yl)-3-isopropyl-1H-indol-2-yl)-1H-pyrazolo[3,4-b]pyridine]	< 100	< 100	1000 to 50000
Cc1cn2c(C)cc(-c3[nH]c4ccc(C5CCN(C(=O)CN(C)C)CC5)cc4c3C(C)C)cc2n1 [Example 499, 2-(dimethylamino)-1-(4-(2-(2,5-dimethylimidazo[1,2-a]pyridin-7-yl)-3-isopropyl-1H-indol-5-yl)piperidin-1-yl)ethan-1-one]	100 to 1000	1000 to 50000	100 to 1000
COc1ccc2nc(Cl)c(CN3CCC(c4ccc5[nH]c(-c6ccnc7[nH]ncc67)c(C(C)C)c5c4)CC3)cc2c1 [Example 902, 2-chloro-3-((4-(3-isopropyl-2-(1H-pyrazolo[3,4-b]pyridin-4-yl)-1H-indol-5-yl)piperidin-1-yl)methyl)-6-methoxyquinoline]	100 to 1000	100 to 1000	> 50000
CC(C)c1c(-c2ccc3c(N)n[nH]c3c2)[nH]c2ccc(C3CCNCC3)cc12 [Example 84, 6-(3-isopropyl-5-(piperidin-4-yl)-1H-indol-2-yl)-1H-indazol-3-amine]	100 to 1000	100 to 1000	100 to 1000
Cc1cc2cc(-c3[nH]c4ccc(C5CCNCC5)cc4c3C(C)C)cc(CC(C)C)n2n1 [Example 144, 7-isobutyl-5-(3-isopropyl-5-(piperidin-4-yl)-1H-indol-2-yl)-2-methylpyrazolo[1,5-a]pyridine]	> 3130	> 3130	1000 to 50000
Cc1c(-c2[nH]c3ccc(C4CCN(CC(=O)N(C)C)CC4)cc3c2C(C)C)ccc2c1cnn2C [Example 382, 2-(4-(2-(1,4-dimethyl-1H-indazol-5-yl)-3-isopropyl-1H-indol-5-yl)piperidin-1-yl)-N,N-dimethylacetamide]	< 100	< 100	1000 to 50000
Cc1cc2ncnn2nc1-c1[nH]c2ccc(C3CCNCC3)cc2c1C(C)C [Example 31, 6-(3-isopropyl-5-(piperidin-4-yl)-1H-indol-2-yl)-7-methyl-[1,2,4]triazolo[1,5-b]pyridazine]	< 100	< 100	1000 to 50000
CN(C)CC(=O)N1CCC(c2ccc3[nH]c(-c4ccnc5[nH]ncc45)c(CC(F)F)c3c2)CC1 [Example 517, 1-(4-(3-(2,2-difluoroethyl)-2-(1H-pyrazolo[3,4-b]pyridin-4-yl)-1H-indol-5-yl)piperidin-1-yl)-2-(dimethylamino)ethan-1-one]	100 to 1000	< 100	100 to 1000
CNC(=O)CN1CCC(c2ccc3[nH]c(-c4ccn5ccnc5c4)c(CC(F)F)c3c2)CC1 [Example 446, 2-(4-(3-(2,2-difluoroethyl)-2-(imidazo[1,2-a]pyridin-7-yl)-1H-indol-5-yl)piperidin-1-yl)-N-methylacetamide]	< 100	100 to 1000	100 to 1000
CC(C)c1c(-c2ccc3nc(N)cn3c2)[nH]c2ccc(C3CCNCC3)cc12 [Example 116, 6-(3-isopropyl-5-(piperidin-4-yl)-1H-indol-2-yl)imidazo[1,2-a]pyridin-2-amine]	100 to 1000	100 to 1000	1000 to 50000
CCc1c(-c2cc3cnn(C)c3cn2)[nH]c2ccc(C3CCNCC3)cc12 [Example 97, 5-(3-ethyl-5-(piperidin-4-yl)-1H-indol-2-yl)-1-methyl-1H-pyrazolo[3,4-c]pyridine]	1000 to 50000	100 to 1000	1000 to 50000
CCCN1CCC(c2ccc3[nH]c(-c4cc(OC)c5ncnn5n4)c(C(C)C)c3c2)CC1 [Example 952, 6-(3-isopropyl-5-(1-propylpiperidin-4-yl)-1H-indol-2-yl)-8-methoxy-[1,2,4]triazolo[1,5-b]pyridazine]	< 100	< 100	1000 to 50000
Cc1cc(-c2[nH]c3ccc(C4CCN(C(=O)CN(C)C)CC4)cc3c2C(C)C)cc2cncn12 [Example 531, 2-(dimethylamino)-1-(4-(3-isopropyl-2-(5-methylimidazo[1,5-a]pyridin-7-yl)-1H-indol-5-yl)piperidin-1-yl)ethan-1-one]	< 100	< 100	100 to 1000
Cc1cc2cc(-c3[nH]c4ccc(C5CCN(C(=O)CN(C)C)CC5)cc4c3C(C)C)cc(C)n2n1 [Example 552, 2-(dimethylamino)-1-(4-(2-(2,7-dimethylpyrazolo[1,5-a]pyridin-5-yl)-3-isopropyl-1H-indol-5-yl)piperidin-1-yl)ethan-1-one]	< 100	< 100	100 to 1000
